Article PMC10743905, “Design, Synthesis, and In Vitro and In Vivo Bioactivity Studies of Hydrazide–Hydrazones of 2,4-Dihydroxybenzoic Acid” (International Journal of Molecular Sciences, 2023)
Values after ≈ are worked out from the molar mass of the structure shown.

Key:
[1] = test system: Candida albicans ATCC 10231; assay: Broth microdilution MIC/MFC; assay type: cell-based; settings: for MFC: ATCC10231, read-out: MFC; for MIC: ATCC10231, read-out: MIC
Text: (§1) In vitro antimicrobial activity assays - Methodology
(§2) The examined compounds 1 - 24 were screened in vitro for antibacterial and antifungal activities using the broth microdilution method according to procedure reported earlier by our research group and European Committee on Antimicrobial Susceptibility Testing (EUCAST) and Clinical and Laboratory Standards Institute (CLSI) guidelines against a panel of reference and clinical or saprophytic strains of microorganisms, in-cluding Gram-positive bacteria, Staphylococcus aureus ATCC 43300 (Methicillin Resistant S. aureus – MRSA), Staphylococcus aureus ATCC 29213 (Methicillin Susceptible S. aureus – MSSA), Staphylococcus epidermidis ATCC 12228, Enterococcus faecalis ATCC 29212, Micro-coccus luteus ATCC 10240, Bacillus subtilis ATCC 6633 and Bacillus cereus ATCC 10876), Gram-negative bacteria (Bordetella bronchiseptica ATCC 4617, Escherichia coli ATCC 25922, Klebsiella pneumoniae ATCC 13883, Proteus mirabilis ATCC 12453, Salmonella typhimurium ATCC 14028 and Pseudomonas aeruginosa ATCC 9027) and fungi belonging to yeasts (Can-dida albicans ATCC 10231, Candida albicans ATCC 2091, Candida parapsilosis ATCC 22019, Candida glabrata ATCC 90030 and Candida krusei ATCC 14243). The microorganisms be-longing to ATCC came from American Type Culture Collection, routinely used for the evaluation of antimicrobials. All the used microbial cultures were first subcultured on nu-trient agar or Sabouraud agar at 35°C for 18-24 h or 30°C for 24-48 h for bacteria and fungi, […]
(§3) The surface of Mueller-Hinton agar (for bacteria) and RPMI 1640 with MOPS (for fungi) were inoculated with the suspensions of bacterial or fungal species. Microbial suspensions were prepared in sterile saline with an optical density of McFarland standard scale 0.5.
(§4) Samples containing examined compounds were dissolved in dimethyl sulfoxide (DMSO).
(§5) Furthermore, bacterial and fungal suspensions were put onto Petri dishes with solid me-dia containing 2 mg/mL of the tested compounds followed incubation at 37°C for 24h and 30°C for 48h for bacteria and fungi, respectively. The inhibition of microbial growth was judged by comparison with a control culture prepared without any sample tested. Ciprof-loxacin, vancomycin, nitrofurantoin, cefuroxime, ampicillin or nystatin (Sigma) were used as a reference antibacterial or antifungal compounds, respectively.
(§6) Subsequently, the MIC (Minimal Inhibitory Concentration) of the compounds was ex-amined by the microdilution broth method, using their two-fold dilutions in Mueller- […]
(§7) Hinton broth or (for bacteria) and RPMI 1640 broth with MOPS (for fungi) prepared in 96-well polystyrene plates. Final concentrations of the compounds ranged from 1000 to 0.488 µg/ml. Microbial suspensions were prepared in 0.85% NaCl with an optical density of 0.5 McFarland standard. Next each bacterial or fungal suspension was added per each well containing broth and various concentrations of the examined compounds. After incuba-

[2] = test system: Candida krusei ATCC 14243; assay: Broth microdilution MIC/MFC; assay type: cell-based; settings: Pichia kudriavzevii, ATCC14243, read-out: MIC
Text: as §1, §2, §3, §4, §5, §6, §7

[3] = test system: Candida parapsilosis ATCC 22019; assay: Broth microdilution MIC/MFC; assay type: cell-based; settings: Lodderomyces parapsilosis, ATCC22019, read-out: MIC
Text: as §1, §2, §3, §4, §5, §6, §7

[4] = test system: Candida glabrata ATCC 90030; assay: Broth microdilution MIC/MFC; assay type: cell-based; settings: Nakaseomyces glabratus, ATCC90030, read-out: MIC
Text: as §1, §2, §3, §4, §5, §6, §7

[5] = test system: Candida albicans ATCC 2091; assay: Broth microdilution MIC/MFC; assay type: cell-based; settings: for MFC: ATCC2091, read-out: MFC; for MIC: ATCC2091, read-out: MIC
Text: as §1, §2, §3, §4, §5, §6, §7

[6] = test system: Staphylococcus aureus ATCC 43300; assay: Broth microdilution MIC/MBC; assay type: cell-based; settings: Staphylococcus aureus ATCC 43300 (MRSA)
Text: as §1
as §2, with “antimicrobials.” for “antimicrobials. All the used microbial cultures were first subcultured on nu-trient agar or Sabouraud agar at 35°C for 18-24 h or 30°C for 24-48 h for bacteria and fungi,”
(§8) Samples containing examined compounds were dissolved in dimethyl sulfoxide (DMSO). […]
as §6, §7

[7] = test system: Pseudomonas aeruginosa ATCC 9027; assay: Broth microdilution MIC/MBC; assay type: cell-based; settings: ATCC9027
Text: as §1
as §2, with “antimicrobials.” for “antimicrobials. All the used microbial cultures were first subcultured on nu-trient agar or Sabouraud agar at 35°C for 18-24 h or 30°C for 24-48 h for bacteria and fungi,”
as §8, §6, §7

[8] = test system: Micrococcus luteus ATCC 10240; assay: Broth microdilution MIC/MBC; assay type: cell-based; settings: for MBC: ATCC10240; for MIC: ATCC10240, read-out: MIC
Text: as §1
as §2, with “antimicrobials.” for “antimicrobials. All the used microbial cultures were first subcultured on nu-trient agar or Sabouraud agar at 35°C for 18-24 h or 30°C for 24-48 h for bacteria and fungi,”
as §8, §6, §7

[9] = test system: Staphylococcus epidermidis ATCC 12228; assay: Broth microdilution MIC/MBC; assay type: cell-based; settings: for MBC: ATCC12228; for MIC: ATCC12228, read-out: MIC
Text: as §1
as §2, with “antimicrobials.” for “antimicrobials. All the used microbial cultures were first subcultured on nu-trient agar or Sabouraud agar at 35°C for 18-24 h or 30°C for 24-48 h for bacteria and fungi,”
as §8, §6, §7

[10] = test system: Staphylococcus aureus ATCC 29213; assay: Broth microdilution MIC/MBC; assay type: cell-based; settings: for MBC / MIC: ATCC29213
Text: as §1
as §2, with “antimicrobials.” for “antimicrobials. All the used microbial cultures were first subcultured on nu-trient agar or Sabouraud agar at 35°C for 18-24 h or 30°C for 24-48 h for bacteria and fungi,”
as §8, §6, §7

[11] = test system: Salmonella typhimurium ATCC 14028; assay: Broth microdilution MIC/MBC; assay type: cell-based; settings: Salmonella enterica
Text: as §1
as §2, with “antimicrobials.” for “antimicrobials. All the used microbial cultures were first subcultured on nu-trient agar or Sabouraud agar at 35°C for 18-24 h or 30°C for 24-48 h for bacteria and fungi,”
as §8, §6, §7

[12] = test system: Proteus mirabilis ATCC 12453; assay: Broth microdilution MIC/MBC; assay type: cell-based; settings: ATCC12453
Text: as §1
as §2, with “antimicrobials.” for “antimicrobials. All the used microbial cultures were first subcultured on nu-trient agar or Sabouraud agar at 35°C for 18-24 h or 30°C for 24-48 h for bacteria and fungi,”
as §8, §6, §7

[13] = test system: Bacillus subtilis ATCC 6633; assay: Broth microdilution MIC/MBC; assay type: cell-based; settings: for MBC: ATCC6633; for MIC: ATCC6633, read-out: MIC
Text: Detailed procedures are presented in the Supplementary Materials. […]
as §1, §2, §3, §4, §5, §6, §7

[14] = test system: Klebsiella pneumoniae ATCC 13883; assay: Broth microdilution MIC/MBC; assay type: cell-based; settings: ATCC13883
Text: as §1, §2, §3, §4, §5, §6, §7

[15] = test system: Bacillus cereus ATCC 10876; assay: Broth microdilution MIC/MBC; assay type: cell-based; settings: for MBC: ATCC10876; for MIC: ATCC10876, read-out: MIC
Text: as §1, §2, §3, §4, §5, §6, §7

[16] = test system: Bordetella bronchiseptica ATCC 4617; assay: Broth microdilution MIC/MBC; assay type: cell-based; settings: ATCC4617
Text: as §1, §2, §3, §4, §5, §6, §7

[17] = test system: Enterococcus faecalis ATCC 29212; assay: Broth microdilution MIC/MBC; assay type: cell-based; settings: for MBC: ATCC29212, read-out: MBC; for MIC: ATCC29212, read-out: MIC
Text: as §1, §2, §3, §4, §5, §6, §7

[18] = test system: Escherichia coli ATCC 25922; assay: Broth microdilution MIC/MBC; assay type: cell-based; settings: ATCC25922
Text: as §1, §2, §3, §4, §5, §6, §7

Compound | MIC [1] | MIC [2] | MIC [3] | MIC [4] | MIC [5] | MIC [6] | MIC [7] | MBC/MIC [8] | MBC [8] | MIC [8] | MIC [9] | MBC/MIC [10] | MBC [10] | MIC [10] | MIC [11] | MIC [12] | melting point | MIC [13] | MIC [14] | MIC [15] | other results
COc1cc(/C=N/NC(=O)c2ccc(O)cc2O)cc(I)c1O [Compound 16, 2,4-dihydroxy-N-[(4-hydroxy-3-iodo-5-methoxyphenyl)methylidene]benzohydrazide] | 1000 µg/mL (≈ 2.34 mM) | > 1000 µg/mL | > 1000 µg/mL | > 1000 µg/mL | 250 µg/mL (≈ 0.584 mM) | > 1000 µg/mL | > 1000 µg/mL | > 4 | > 1000 µg/mL | 250 µg/mL (≈ 0.584 mM) | 1000 µg/mL (≈ 2.34 mM) | > 1 | > 1000 µg/mL | 1000 µg/mL (≈ 2.34 mM) | > 1000 µg/mL | > 1000 µg/mL | 255 °C | 250 µg/mL (≈ 0.584 mM) | > 1000 µg/mL | 1000 µg/mL (≈ 2.34 mM) | MFC/MIC [1]: > 1; MFC [1]: > 1000 µg/mL; MFC/MIC [5]: > 4; MFC [5]: > 1000 µg/mL; MBC/MIC [9]: > 1; MBC [9]: > 1000 µg/mL; MBC/MIC [13]: > 4; MBC [13]: > 1000 µg/mL; MBC/MIC [15]: > 1; MBC [15]: > 1000 µg/mL; MIC [16]: > 1000 µg/mL; MBC/MIC [17]: > 1; MBC [17]: > 1000 µg/mL; MIC [17]: 1000 µg/mL (≈ 2.34 mM); MIC [18]: > 1000 µg/mL
Cc1ccccc1/C=N/NC(=O)c1ccc(O)cc1O [Compound 1, 2,4-dihydroxy-N-[(2-methylphenyl)methylidene]benzohydrazide] | > 1000 µg/mL | > 1000 µg/mL | > 1000 µg/mL | > 1000 µg/mL | > 1000 µg/mL | 1000 µg/mL (≈ 3.7 mM) | > 1000 µg/mL | > 2 | > 1000 µg/mL | 500 µg/mL (≈ 1.85 mM) | > 1000 µg/mL | > 1 | > 1000 µg/mL | 1000 µg/mL (≈ 3.7 mM) | > 1000 µg/mL | > 1000 µg/mL | 250 °C | 500 µg/mL (≈ 1.85 mM) | > 1000 µg/mL | > 1000 µg/mL | MBC [6]: > 1000 µg/mL; MBC/MIC [6]: > 1; MBC/MIC [13]: > 2; MBC [13]: > 1000 µg/mL; MIC [16]: > 1000 µg/mL; MBC/MIC [17]: > 1; MBC [17]: > 1000 µg/mL; MIC [17]: 1000 µg/mL (≈ 3.7 mM); MIC [18]: > 1000 µg/mL
CCOc1ccc(/C=N/NC(=O)c2ccc(O)cc2O)cc1 [Compound 5, N-[(4-ethoxyphenyl)methylidene]-2,4-dihydroxybenzohydrazide] | 1000 µg/mL (≈ 3.33 mM) | > 1000 µg/mL | > 1000 µg/mL | > 1000 µg/mL | 500 µg/mL (≈ 1.66 mM) | > 1000 µg/mL | > 1000 µg/mL | > 2 | > 1000 µg/mL | 500 µg/mL (≈ 1.66 mM) | > 1000 µg/mL | > 1 | > 1000 µg/mL | 1000 µg/mL (≈ 3.33 mM) | > 1000 µg/mL | > 1000 µg/mL | 248 °C | 500 µg/mL (≈ 1.66 mM) | > 1000 µg/mL | 500 µg/mL (≈ 1.66 mM) | MFC/MIC [1]: > 1; MFC [1]: > 1000 µg/mL; MFC/MIC [5]: > 2; MFC [5]: > 1000 µg/mL; MBC/MIC [13]: > 2; MBC [13]: > 1000 µg/mL; MBC/MIC [15]: > 2; MBC [15]: > 1000 µg/mL; MIC [16]: > 1000 µg/mL; MBC/MIC [17]: > 1; MBC [17]: > 1000 µg/mL; MIC [17]: 1000 µg/mL (≈ 3.33 mM); MIC [18]: > 1000 µg/mL
CCCCOc1ccc(/C=N/NC(=O)c2ccc(O)cc2O)cc1 [Compound 7, N-[(4-butoxyphenyl)methylidene]-2,4-dihydroxybenzohydrazide] | 1000 µg/mL (≈ 3.05 mM) | > 1000 µg/mL | > 1000 µg/mL | > 1000 µg/mL | 500 µg/mL (≈ 1.52 mM) | > 1000 µg/mL | > 1000 µg/mL | > 1 | > 1000 µg/mL | 1000 µg/mL (≈ 3.05 mM) | 500 µg/mL (≈ 1.52 mM) | > 1 | > 1000 µg/mL | 1000 µg/mL (≈ 3.05 mM) | > 1000 µg/mL | > 1000 µg/mL | 246 °C | > 1000 µg/mL | > 1000 µg/mL | 1000 µg/mL (≈ 3.05 mM) | MFC/MIC [1]: > 1; MFC [1]: > 1000 µg/mL; MFC/MIC [5]: > 2; MFC [5]: > 1000 µg/mL; MBC/MIC [9]: 2; MBC [9]: 1000 µg/mL (≈ 3.05 mM); MBC/MIC [15]: > 1; MBC [15]: > 1000 µg/mL; MIC [16]: > 1000 µg/mL; MIC [17]: > 1000 µg/mL; MIC [18]: > 1000 µg/mL
